We go through one compound from US9132141B2 (priority 2012, dated 2015).

This assay deals with non-adapted human Wuhan H3N2 strain. It is filed as in vivo. The note with it: cotton rats.

`CCCCCC/C=C\CCCCCCCCCC(=O)N[C@H]1[C@H](OC[C@H]2O[C@H](OP(=O)(O)O)[C@H](NC(=O)CC(=O)CCCCCCCCCCC)[C@@H](OCCCCCCCCCC)[C@@H]2O)O[C@H](COC)[C@@H](OP(=O)(O)O)[C@@H]1OCC[C@@H](CCCCCCC)OC` [eritoran, α-D-Glucopyranose, 3-O-decyl-2-deoxy-6-O-[2-deoxy-3-O-[(3R)-3-methoxydecyl)-6-O-methyl-2-[[(-11Z)-1-oxo-11-octadecenyl)amino]-4-O-phosphono-β-D-glucopyranosyl]-2-[(1,3-dioxotetradecyl)amino]-1-(dihydrogen phosphate)]: the “lung expression of IL-6 and IL-10” value was “decreased lung expression of IL-6 and IL-10”.
